Structures can show the parent of a compound that is named as a salt.
Each compound was assayed against human TRPV4 (Homo sapiens (Human), UniProt Q9HBA0) (assay: FLIPR assay for hTRPV4 expressed in BHK cells). Conditions: inhibition of Agonist Compound (EC80)-induced calcium signal; BHK/AC9 cells expressing human TRPV4; read-out: IC50.
Chain of human TRPV4 (Q9HBA0 whole entry): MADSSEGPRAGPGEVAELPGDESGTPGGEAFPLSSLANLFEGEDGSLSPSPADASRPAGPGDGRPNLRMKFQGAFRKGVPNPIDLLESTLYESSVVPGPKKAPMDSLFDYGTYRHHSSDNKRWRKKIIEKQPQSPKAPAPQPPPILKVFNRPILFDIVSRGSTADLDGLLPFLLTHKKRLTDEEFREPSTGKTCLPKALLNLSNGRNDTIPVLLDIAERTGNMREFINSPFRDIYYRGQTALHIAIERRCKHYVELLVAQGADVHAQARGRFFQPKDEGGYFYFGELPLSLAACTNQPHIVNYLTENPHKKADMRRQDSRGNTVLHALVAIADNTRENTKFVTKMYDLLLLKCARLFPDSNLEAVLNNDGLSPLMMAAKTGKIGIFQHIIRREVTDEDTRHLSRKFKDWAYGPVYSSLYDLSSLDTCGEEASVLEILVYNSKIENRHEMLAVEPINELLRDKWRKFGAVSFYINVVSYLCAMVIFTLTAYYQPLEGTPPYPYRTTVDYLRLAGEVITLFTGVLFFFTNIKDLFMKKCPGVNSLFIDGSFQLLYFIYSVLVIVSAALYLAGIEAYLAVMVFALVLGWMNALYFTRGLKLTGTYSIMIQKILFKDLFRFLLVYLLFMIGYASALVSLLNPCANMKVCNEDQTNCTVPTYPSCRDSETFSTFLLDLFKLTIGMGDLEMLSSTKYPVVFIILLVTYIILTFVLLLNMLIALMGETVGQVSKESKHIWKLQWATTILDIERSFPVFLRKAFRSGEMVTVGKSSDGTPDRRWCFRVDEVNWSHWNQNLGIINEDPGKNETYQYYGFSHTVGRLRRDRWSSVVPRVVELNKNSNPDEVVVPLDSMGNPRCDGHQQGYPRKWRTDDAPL
Assay type: cell-based
Method in brief: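 BHK/AC9 cells transduced with BacMam human TRPV4 (MOI 78), 15,000 cells/well, cultured 24 h at 37 °C. Loaded with 2 μM Fluo-4 AM and 500 μM Brilliant Black in HBSS for 1–1.5 h at room temperature in the dark. Intracellular calcium influx monitored by fluorescence.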
`N#Cc1ccc(S(=O)(=O)N2C[C@H](S(=O)(=O)c3ccc(Cl)c(F)c3)[C@](O)(CO)C2)c(Cl)c1` [Example 107, 3-chloro-4-(((3R,4S)-4-((4-chloro-3-fluorophenyl)sulfonyl)-3-hydroxy-3-(hydroxymethyl)pyrrolidin-1-yl)sulfonyl)benzonitrile] was tested, and the IC50 was 0.1 to 10 nM.
`O=S(=O)(c1cnc(C(F)(F)F)nc1)[C@H]1CN(S(=O)(=O)c2ccc(Cl)cc2Cl)C[C@@]1(O)CO` [Example 108, (3R,4S)-1-((2,4-dichlorophenyl)sulfonyl)-3-(hydroxymethyl)-4-((2-(trifluoromethyl)pyrimidin-5-yl)sulfonyl)pyrrolidin-3-ol] showed an IC50 of 10 to 100 nM.
For `N#Cc1ccc(S(=O)(=O)N2C[C@H](S(=O)(=O)c3ccc(Cl)cn3)[C@@](O)(CO)C2)c(Cl)c1` [Example 109, 3-chloro-4-(((3S,4S)-4-((5-chloropyridin-2-yl)sulfonyl)-3-hydroxy-3-(hydroxymethyl)pyrrolidin-1-yl)sulfonyl)benzonitrile], the IC50 was 10 to 100 nM.
Compound `N#Cc1ccc(S(=O)(=O)N2C[C@H](S(=O)(=O)c3ccc(C(F)(F)F)cn3)[C@](O)(CO)C2)c(Cl)c1` [Example 110, 3-chloro-4-(((3R,4S)-3-hydroxy-3-(hydroxymethyl)-4-((5-(trifluoromethyl)pyridin-2-yl)sulfonyl)pyrrolidin-1-yl)sulfonyl)benzonitrile] has an IC50 of 10 to 100 nM.
In the case of `N#Cc1ncccc1S(=O)(=O)N1C[C@H](S(=O)(=O)c2ccc(Cl)cc2)[C@](O)(CO)C1` [Example 111, 3-(((3R,4S)-4-((4-chlorophenyl)sulfonyl)-3-hydroxy-3-(hydroxymethyl)pyrrolidin-1-yl)sulfonyl)picolinonitrile], the IC50 is reported as 10 to 100 nM.
Work on `N#Cc1ccc(S(=O)(=O)N2C[C@H](S(=O)(=O)c3cnc(C(F)(F)F)nc3)[C@](O)(CO)C2)c(Cl)c1` [Example 112, 3-chloro-4-(((3R,4S)-3-hydroxy-3-(hydroxymethyl)-4-((2-(trifluoromethyl)pyrimidin-5-yl)sulfonyl)pyrrolidin-1-yl)sulfonyl)benzonitrile] yielded an IC50 of 10 to 100 nM.
For `N#Cc1ccc(S(=O)(=O)N2C[C@H](S(=O)(=O)c3ccc(Br)cn3)[C@](O)(CO)C2)c(Cl)c1` [Example 113, 4-(((3R,4S)-4-((5-bromopyridin-2-yl)sulfonyl)-3-hydroxy-3-(hydroxymethyl)pyrrolidin-1-yl)sulfonyl)-3-chlorobenzonitrile], the IC50 was 0.1 to 10 nM.
`O=S(=O)(c1ccc(Cl)c(Cl)c1)[C@H]1CN(S(=O)(=O)c2ccc(Cl)cc2Cl)C[C@@]1(O)CO` [Example 114, (3R,4S)-1-((2,4-dichlorophenyl)sulfonyl)-4-((3,4-dichlorophenyl)sulfonyl)-3-(hydroxymethyl)pyrrolidin-3-ol] showed an IC50 of 10 to 100 nM.
`O=S(=O)(c1ccc(Cl)c(Cl)c1)[C@H]1CN(S(=O)(=O)c2ccc(Cl)cc2Cl)C[C@]1(O)CO` [Example 115, (3S,4S)-1-((2,4-dichlorophenyl)sulfonyl)-4-((3,4-dichlorophenyl)sulfonyl)-3-(hydroxymethyl)pyrrolidin-3-ol] gave an IC50 of 10 to 100 nM.
With `O=S(=O)(c1ccc(C(F)(F)F)cn1)[C@H]1CN(S(=O)(=O)c2ccc(Cl)cc2Cl)C[C@@]1(O)CO` [Example 116, (3R,4S)-1-((2,4-dichlorophenyl)sulfonyl)-3-(hydroxymethyl)-4-((5-(trifluoromethyl)pyridin-2-yl)sulfonyl)pyrrolidin-3-ol] the IC50 was 10 to 100 nM.
Compound `N#Cc1cc(C(F)(F)F)ccc1S(=O)(=O)N1C[C@H](S(=O)(=O)c2ccc(Cl)cc2)[C@](O)(CO)C1` [Example 117, 2-(((3R,4S)-4-((4-chlorophenyl)sulfonyl)-3-hydroxy-3-(hydroxymethyl)pyrrolidin-1-yl)sulfonyl)-5-(trifluoromethyl)benzonitrile] has an IC50 of 0.1 to 10 nM.
With `O=S(=O)(c1ccc(C(F)(F)F)nc1)[C@H]1CN(S(=O)(=O)c2ccc(Cl)cc2Cl)C[C@@]1(O)CO` [Example 118, (3R,4S)-1-((2,4-dichlorophenyl)sulfonyl)-3-(hydroxymethyl)-4-((6-(trifluoromethyl)pyridin-3-yl)sulfonyl)pyrrolidin-3-ol] the IC50 was 10 to 100 nM.
Work on `C[C@H](O)[C@]1(O)CN(S(=O)(=O)c2ccc(C#N)cc2Cl)C[C@@H]1S(=O)(=O)c1ccc(Cl)cn1` [Example 119, 3-chloro-4-(((3R,4S)-4-((5-chloropyridin-2-yl)sulfonyl)-3-hydroxy-3-((S)-1-hydroxyethyl)pyrrolidin-1-yl)sulfonyl)benzonitrile] yielded an IC50 of 0.1 to 10 nM.
`C[C@@H](O)[C@]1(O)CN(S(=O)(=O)c2ccc(C#N)cc2Cl)C[C@@H]1S(=O)(=O)c1ccc(Cl)cn1` [Example 120, 3-chloro-4-(((3R,4S)-4-((5-chloropyridin-2-yl)sulfonyl)-3-hydroxy-3-((R)-1-hydroxyethyl)pyrrolidin-1-yl)sulfonyl)benzonitrile] gave an IC50 of 0.1 to 10 nM.
`N#Cc1ccc(S(=O)(=O)N2C[C@H](S(=O)(=O)c3ccc(Cl)cn3)[C@](O)(CN)C2)c(Cl)c1` [Example 121, 4-(((3S,4S)-3-(aminomethyl)-4-((5-chloropyridin-2-yl)sulfonyl)-3-hydroxypyrrolidin-1-yl)sulfonyl)-3-chlorobenzonitrile] was tested, and the IC50 was 0.1 to 10 nM.
`CNC[C@]1(O)CN(S(=O)(=O)c2ccc(C#N)cc2Cl)C[C@@H]1S(=O)(=O)c1ccc(Cl)cc1` [Example 124, 3-chloro-4-(((3S,4S)-4-((4-chlorophenyl)sulfonyl)-3-hydroxy-3-((methylamino)methyl)pyrrolidin-1-yl)sulfonyl)benzonitrile] gave an IC50 of 0.1 to 10 nM.
`N#Cc1ccc(S(=O)(=O)N2C[C@H](S(=O)(=O)c3ccc(Cl)cn3)[C@@](O)(CN)C2)c(Cl)c1` [Example 125, 4-(((3R,4S)-3-(aminomethyl)-4-((5-chloropyridin-2-yl)sulfonyl)-3-hydroxypyrrolidin-1-yl)sulfonyl)-3-chlorobenzonitrile] showed an IC50 of 0.1 to 10 nM.
Work on `N#Cc1ccc(S(=O)(=O)N2C[C@H](S(=O)(=O)c3ccc(Cl)cc3)[C@](O)(CN)C2)cc1` [Example 126, 4-(((3S,4S)-3-(aminomethyl)-4-((4-chlorophenyl)sulfonyl)-3-hydroxypyrrolidin-1-yl)sulfonyl)benzonitrile] yielded an IC50 of 10 to 100 nM.
For `N#Cc1ccc(S(=O)(=O)N2C[C@H](S(=O)(=O)c3ccc(Cl)cc3)[C@@](O)(CN)C2)cc1` [Example 127, 4-(((3R,4S)-3-(aminomethyl)-4-((4-chlorophenyl)sulfonyl)-3-hydroxypyrrolidin-1-yl)sulfonyl)benzonitrile], the IC50 was 10 to 100 nM.
Work on `N#Cc1ccc(S(=O)(=O)N2C[C@H](S(=O)(=O)c3ccc(Cl)cc3)[C@@](O)(CNCC(F)(F)F)C2)c(Cl)c1` [Example 128, 3-chloro-4-(((3R,4S)-4-((4-chlorophenyl)sulfonyl)-3-hydroxy-3-(((2,2,2-trifluoroethyl)amino)methyl)pyrrolidin-1-yl)sulfonyl)benzonitrile] yielded an IC50 of 10 to 100 nM.
`N#Cc1ccc(S(=O)(=O)N2C[C@H](S(=O)(=O)c3ccc(Cl)cn3)[C@@]3(CNCCO3)C2)c(Cl)c1` [Example 129, 3-chloro-4-(((4S,5R)-4-((5-chloropyridin-2-yl)sulfonyl)-6-oxa-2,9-diazaspiro[4.5]decan-2-yl)sulfonyl)benzonitrile, Hydrochloride] gave an IC50 of 10 to 100 nM.

Reference: patent publication US11260049B2, “TRPV4 antagonists” (GlaxoSmithKline Intellectual Property (No. 2) Limited, priority 2016, dated 2022)
